Assay [1] has as its target T1, RARα (Homo sapiens, UniProt P10276).
T1 sequence (P10276 1-462): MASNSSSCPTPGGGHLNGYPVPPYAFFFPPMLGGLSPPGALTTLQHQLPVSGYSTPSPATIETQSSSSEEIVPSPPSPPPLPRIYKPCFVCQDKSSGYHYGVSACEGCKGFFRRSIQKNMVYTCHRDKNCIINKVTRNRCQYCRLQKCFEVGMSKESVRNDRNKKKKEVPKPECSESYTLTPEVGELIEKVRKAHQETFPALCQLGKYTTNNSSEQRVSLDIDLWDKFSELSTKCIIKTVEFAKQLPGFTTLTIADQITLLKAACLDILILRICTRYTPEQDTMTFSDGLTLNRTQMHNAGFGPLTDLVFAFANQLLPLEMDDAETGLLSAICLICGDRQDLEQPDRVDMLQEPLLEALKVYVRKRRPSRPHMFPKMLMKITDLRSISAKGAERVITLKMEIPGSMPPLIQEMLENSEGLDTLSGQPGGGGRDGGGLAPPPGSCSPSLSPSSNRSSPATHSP
In words: co-transfection assay, agonist activity on RARα. In kind it is cell-based. Particulars: CV-1 cells; read-out: EC50 agonist potency, RARα. Set-up: expressed in transfected cells; host or cells: CV-1 cells (African green monkey kidney). The text has this:
This assay is described in further detail in U.S. Pat. Nos. 4,981,784 and 5,071,773, the disclosures of which are incorporated herein by reference.
In the co-transfection assay, a cloned cDNA for an IR (e.g., human RARα:, RARβ, RXRγ) under the control of a constitutive promoter (e.g., the SV 40 promoter) is introduced by transfection (a procedure to induce cells to take up foreign genes) into a background cell substantially devoid of endogenous IRs. This introduced gene directs the recipient cells to make the IR protein of interest. A second gene is also introduced (co-transfected) into the same cells in conjunction with the IR gene. This second gene, comprising the cDNA for a reporter protein, such as firefly luciferase (LUC), is controlled by an appropriate hormone responsive promoter containing a hormone response element (HRE). This reporter plasmid functions as a reporter for the transcription-modulating activity of the target IR. Thus, the reporter acts as a surrogate for the products (mRNA then protein) normally expressed by a gene under control of the target receptor and its native hormone.
The co-transfection assay can detect small molecule agonists or antagonists of target IRs. Exposing the transfected cells to an agonist ligand compound increases reporter activity in the transfected cells. This activity can be conveniently measured, e.g., by increasing luciferase production, which reflects compound-dependent, IR-mediated increases in reporter transcription. To detect antagonists, the co-transfection assay is carried out in the presence of a constant concentration of an agonist to the target IR (e.g., all-trans retinoic acid for RARα) known to induce a defined reporter signal. Increasing concentrations of a suspected antagonist will decrease the reporter signal (e.g., luciferase production). The co-transfection assay is therefore useful to detect both agonists and antagonists of specific IRs. Furthermore, it determines not only whether a compound interacts with a particular IR, but whether this interaction mimics (agonizes) or blocks (antagonizes) the effects of the native regulatory molecules on target gene expression, as well as the specificity and strength of this interaction.
CV-1 cells (African green monkey kidney fibroblasts) were cultured in the presence of Dulbecco's Modified Eagle Medium (DMEM) supplemented with 10% charcoal resin-stripped fetal bovine serum then transferred to 96-well microtiter plates one day prior to transfection. […]

Assay [2] has as its target T2, RARγ (Homo sapiens, UniProt P13631).
T2 sequence (P13631 1-454): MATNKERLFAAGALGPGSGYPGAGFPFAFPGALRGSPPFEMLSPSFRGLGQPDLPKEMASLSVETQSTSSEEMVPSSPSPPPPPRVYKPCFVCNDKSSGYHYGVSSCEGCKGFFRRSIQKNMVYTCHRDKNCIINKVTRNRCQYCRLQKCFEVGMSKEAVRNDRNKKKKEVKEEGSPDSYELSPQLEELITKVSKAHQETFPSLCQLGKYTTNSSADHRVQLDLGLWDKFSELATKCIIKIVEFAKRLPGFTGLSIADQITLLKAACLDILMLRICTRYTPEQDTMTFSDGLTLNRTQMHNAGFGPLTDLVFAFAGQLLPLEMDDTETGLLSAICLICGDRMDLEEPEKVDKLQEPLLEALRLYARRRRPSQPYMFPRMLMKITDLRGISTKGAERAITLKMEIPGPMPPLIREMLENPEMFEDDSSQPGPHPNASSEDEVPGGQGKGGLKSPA
The assay can be described thus: RAR binding, RARγ. The conditions noted are these: Kd from IC50 by Cheng-Prussof equation. The method, then: (§1) Non-specific binding was defined as that binding remaining in the presence of 500 nM of the appropriate unlabelled compound. At the end of the incubation period, bound from free ligand were separated. The amount of bound tritiated retinoids was determined by liquid scintillation counting of an aliquot (700 μL) of the supernatant fluid or the hydroxylapatite pellet.
(§2) After correcting for non-specific binding, IC50 values were determined. […] The IC50 value was determined graphically from a log-logit plot of the data. The Kd values were determined by application of the Cheng-Prussof equation to the IC50 values, the labeled ligand concentration and the Kd of the labeled ligand.

Assay [3] concerns the target T1, RARα. The assay can be described thus: RAR binding, RARα. The conditions noted are these: Kd from IC50 by Cheng-Prussof equation. The protocol: as §1, §2

Bounds are passed on as bounds.

With `CCCCOc1c(C(C)(C)C)cc(/C(C)=C/C=C/C(C)=C/C(=O)O)cc1C(C)(C)C` [Compound 7, 2E, 4E, 6E-[7-(3,5-Di-t-butyl-4-n-butoxyphenyl)-3-methyl]-octa-2,4,6-trienoic acid], in assay [1], the EC50 was more than 10000 nM. Moreover, the Kd was 17 nM in assay [2] and 3 nM in assay [3].
For the compound `CCCOc1c(C(C)(C)C)cc(/C(C)=C/C=C/C(C)=C/C(=O)O)cc1C(C)(C)C` [Compound 8, 2E, 4E, 6E-[7-(3,5-Di-t-butyl-4-n-propoxyphenyl)-3-methyl]-octa-2,4,6-trienoic acid], the EC50 in assay [1] is more than 10000 nM. Besides, the results for the Kd in assay [2] and in assay [3] were 4 nM and 2 nM, respectively.
The like results for `CCCCCOc1c(C(C)(C)C)cc(/C(C)=C/C=C/C(C)=C/C(=O)O)cc1C(C)(C)C` [Compound 9, 2E, 4E, 6E-[7-(3,5-Di-t-butyl-4-n-pentoxyphenyl)-3-methyl]-octa-2,4,6-trienoic acid] were, in that order, more than 10000 nM, 14 nM and 9 nM.
`C=C(c1ccccc1)c1cc(/C(C)=C/C=C/C(C)=C/C(=O)O)cc(C(C)(C)C)c1` [Compound 17, (2E,4E,6E)-7-[3-t-butyl-5-(1-phenyl-vinyl)-phenyl]-3-methyl-octa-2,4,6-trienoic acid]: in assay [1], the EC50 was more than 10000 nM. Also, the Kd came to 14 nM in assay [2] and 2 nM in assay [3].

These data come from patent US5998654A, “Retinoic acid receptor antagonist compounds and methods” (Ligand Pharmaceuticals Incorporated, priority 1997, dated 1999).
